Laboratory results published in patent US11840528B2 (Hoffmann-La Roche Inc., priority 2018, dated 2023).

Tests used:
h-GABA-A α5β3γ2 [1] = biological target: T1, h-GABA-A α5β3γ2 (Homo sapiens, UniProt P18507+P31644); assay: [3H]flumazenil competition binding assay, membranes of HEK293 cells expressing GABAA receptors; conditions: displacement of [3H]-Flumazenil 0.5 nM, HEK293 cells expressing human receptors, mean of two determinations; Table 1
Method in brief: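 Membranes from HEK293 cells transiently expressing human α5β3γ2 GABAA receptors, in Krebs-tris buffer pH 7.5, competed against [3H]flumazenil for 1 hour at 4° C to equilibrium. Bound radioactivity collected on GF/C filters and counted by liquid scintillation; Ki values are means of two determinations.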

h-GABA-A α5β3γ2 [2] = biological target: T1, h-GABA-A α5β3γ2; assay: Two-electrode voltage clamp electrophysiology in Xenopus laevis oocytes expressing GABAA receptors, modulation of GABA EC20 current; type: cell-based; parameters: host or cells: Xenopus laevis oocytes micro-injected with RNA transcripts of the subunits; conditions: Table 1; for Efficacy (GABA) %: % modulation of GABA EC20 = 100*(Fold increase-1); for Fold increase h-GABA-A α5β3γ2 oocyte: test compound at approx. 30 fold its Ki, GABA at EC20
Method in brief: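 Human α5β3γ2 GABAA receptors were expressed in Xenopus oocytes by RNA injection, with γ2 RNA 5–10-fold higher, and recorded 3–5 days later by two-electrode voltage clamp at −80 mV at room temperature. The test compound, at about 30× its Ki, was co-applied during a second GABA EC20 pulse. Efficacy is the extremum of the point-by-point ratio to the first response, expressed as 100*(Fold increase−1).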

| Ki (h-GABA-A α5β3γ2 [1]) | Efficacy (GABA) % (h-GABA-A α5β3γ2 [2]) | Fold increase h-GABA-A α5β3γ2 oocyte (h-GABA-A α5β3γ2 [2]) | Structure (SMILES) |
| --- | --- | --- | --- |
| 28.2 nM | 180% | 2.8 | Cc1ccc(-c2noc(C)c2Cn2ncc(-c3cc(F)cnc3Cl)cc2=O)cn1 [Example 189, 5-(2-chloro-5-fluoro-3-pyridyl)-2-((5-methyl-3-(6-methyl-3-pyridyl)isoxazol-4-yl)methyl)pyridazin-3-one] |
| 25.2 nM | 146% | 2.46 | Cc1ccc(-c2noc(C)c2Cn2ncc(-c3ccc(OC(C)C)nc3)cc2=O)cn1 [Example 190, 5-(6-isopropoxy-3-pyridyl)-2-((5-methyl-3-(6-methyl-3-pyridyl)isoxazol-4-yl)methyl)pyridazin-3-one] |
| 5.9 nM | 126% | 2.26 | COc1cc(-c2cnn(Cc3c(-c4ccc(C)nc4)noc3C)c(=O)c2)c(F)cn1 [Example 191, 5-(5-fluoro-2-methoxypyridin-4-yl)-2-((5-methyl-3-(6-methylpyridin-3-yl)isoxazol-4-yl)methyl)pyridazin-3(2H)-one] |
| 6.4 nM | 221% | 3.21 | Cc1ccc(-c2noc(C)c2Cn2ncc(-c3cc(C)nc(C)c3)cc2=O)cn1 [Example 192, 5-(2,6-dimethylpyridin-4-yl)-2-((5-methyl-3-(6-methylpyridin-3-yl)isoxazol-4-yl)methyl)pyridazin-3(2H)-one] |
| 7.2 nM | 95% | 1.95 | Cc1ccc(-c2noc(C)c2Cn2ncc(N3CC4(C3)CC(F)(F)CO4)cc2=O)cn1 [Example 193, 5-(7,7-difluoro-5-oxa-2-azaspiro[3.4]octan-2-yl)-2-[[5-methyl-3-(6-methyl-3-pyridyl)isoxazol-4-yl]methyl]pyridazin-3-one] |
| 10.8 nM | 152% | 2.52 | CO[C@@H]1CN(c2cnn(Cc3c(-c4ccc(C)nc4)noc3C)c(=O)c2)[C@@H]1C [Example 194, 5-[(2R,3R)-3-methoxy-2-methyl-azetidin-1-yl]-2-[[5-methyl-3-(6-methyl-3-pyridyl)isoxazol-4-yl]methyl]pyridazin-3-one] |
| 17.2 nM | 118% | 2.18 | Cc1ccc(-c2noc(C)c2Cn2ncc(N3CC4(CCCCC4)C3)cc2=O)cn1 [Example 195] |
| 3.7 nM | 98% | 1.98 | CCc1cc(-c2cnn(Cc3c(-c4ccc(C)nc4)noc3C)c(=O)c2)ccn1 [Example 196, 5-(2-ethyl-4-pyridyl)-2-((5-methyl-3-(6-methyl-3-pyridyl)isoxazol-4-yl)methyl)pyridazin-3-one] |
| 2 nM | 131% | 2.31 | CO[C@H]1CN(c2cnn(Cc3c(-c4ccc(C)nc4)noc3C)c(=O)c2)[C@H]1C [Example 197, 5-[(2S,3S)-3-methoxy-2-methyl-azetidin-1-yl]-2-[[5-methyl-3-(6-methyl-3-pyridyl)isoxazol-4-yl]methyl]pyridazin-3-one] |
| 1.8 nM | 131% | 2.31 | CCO[C@H]1CN(c2cnn(Cc3c(-c4ccc(C)nc4)noc3C)c(=O)c2)[C@H]1C [Example 198, 5-[(2S,3S)-3-ethoxy-2-methyl-azetidin-1-yl]-2-[[5-methyl-3-(6-methyl-3-pyridyl)isoxazol-4-yl]methyl]pyridazin-3-one] |
| 19.4 nM | 117% | 2.17 | Cc1ccc(-c2noc(C)c2Cn2ncc(N3CC4(CCOCC4)C3)cc2=O)cn1 [Example 199, 2-((5-methyl-3-(6-methylpyridin-3-yl)isoxazol-4-yl)methyl)-5-(7-oxa-2-azaspiro[3.5]nonan-2-yl)pyridazin-3(2H)-one] |
| 18.6 nM | 86% | 1.86 | Cc1ccc(-c2noc(C)c2Cn2ncc(N3CC4(C[C@@H](F)CO4)C3)cc2=O)cn1 [Example 200, 5-[(7R)-7-fluoro-5-oxa-2-azaspiro[3.4]octan-2-yl]-2-[[5-methyl-3-(6-methyl-3-pyridyl)isoxazol-4-yl]methyl]pyridazin-3-one] |
| 14.3 nM | 93% | 1.93 | Cc1ccc(-c2noc(C)c2Cn2ncc(N3CC4(C[C@H](F)CO4)C3)cc2=O)cn1 [Example 201, 5-[(7S)-7-fluoro-5-oxa-2-azaspiro[3.4]octan-2-yl]-2-[[5-methyl-3-(6-methyl-3-pyridyl)isoxazol-4-yl]methyl]pyridazin-3-one] |
| 4.2 nM | 96% | 1.96 | CNc1cc(-c2cnn(Cc3c(-c4ccc(C)nc4)noc3C)c(=O)c2)ccn1 [Example 202, 2-((5-methyl-3-(6-methylpyridin-3-yl)isoxazol-4-yl)methyl)-5-(2-(methylamino)pyridin-4-yl)pyridazin-3(2H)-one] |
| 17.8 nM | 121% | 2.21 | Cc1ccc(-c2noc(C)c2Cn2ncc(N3CC4(C[C@@H](OC(F)F)CO4)C3)cc2=O)cn1 [Example 203, 5-[(7R)-7-(difluoromethoxy)-5-oxa-2-azaspiro[3.4]octan-2-yl]-2-[[5-methyl-3-(6-methyl-3-pyridyl)isoxazol-4-yl]methyl]pyridazin-3-one] |
| 15.1 nM | 160% | 2.6 | Cc1ccc(-c2noc(C)c2Cn2ncc(N3CC4(C[C@H](OC(F)F)CO4)C3)cc2=O)cn1 [Example 204, 5-[(7S)-7-(difluoromethoxy)-5-oxa-2-azaspiro[3.4]octan-2-yl]-2-[[5-methyl-3-(6-methyl-3-pyridyl)isoxazol-4-yl]methyl]pyridazin-3-one] |
| 2 nM | 253% | 3.53 | Cc1ncc(-c2noc(C)c2Cn2ncc(N3C[C@@H](C)O[C@@H](C)C3)cc2=O)cc1F [Example 205, 5-((2R,6S)-2,6-dimethylmorpholino)-2-((3-(5-fluoro-6-methylpyridin-3-yl)-5-methylisoxazol-4-yl)methyl)pyridazin-3(2H)-one] |
| 13.7 nM | 144% | 2.44 | Cc1ccc(-c2noc(C)c2Cn2ncc(N3CC(OCC(F)F)C3)cc2=O)cn1 [Example 206, 5-[3-(2,2-difluoroethoxy)azetidin-1-yl]-2-[[5-methyl-3-(6-methyl-3-pyridyl)isoxazol-4-yl]methyl]pyridazin-3-one] |
| 14.8 nM | 75% | 1.75 | COc1cc(-c2cnn(Cc3c(-c4cnc(C)c(F)c4)noc3C)c(=O)c2)ccn1 [Example 207, 2-((3-(5-fluoro-6-methylpyridin-3-yl)-5-methylisoxazol-4-yl)methyl)-5-(2-methoxypyridin-4-yl)pyridazin-3(2H)-one] |
| 61.2 nM | 110% | 2.1 | Cc1ncc(-c2noc(C)c2Cn2ncc(N3CC4(CCCO4)C3)cc2=O)cc1F [Example 208, 2-((3-(5-fluoro-6-methylpyridin-3-yl)-5-methylisoxazol-4-yl)methyl)-5-(5-oxa-2-azaspiro[3.4]octan-2-yl)pyridazin-3(2H)-one] |
